Experimental data reported in article PMC5055294 (PLoS ONE, 2016).

Columns and labels:
Assay type in all cases: cell-based
[1] = molecular target: T1, GPR1 (Homo sapiens, UniProt P46091); assay: ERK1/2 phosphorylation in MEF cells, GPR1; design: expressed in transfected cells; settings: PTX pre-treatment, 300 nM chemerin
T1 sequence (P46091 1-355): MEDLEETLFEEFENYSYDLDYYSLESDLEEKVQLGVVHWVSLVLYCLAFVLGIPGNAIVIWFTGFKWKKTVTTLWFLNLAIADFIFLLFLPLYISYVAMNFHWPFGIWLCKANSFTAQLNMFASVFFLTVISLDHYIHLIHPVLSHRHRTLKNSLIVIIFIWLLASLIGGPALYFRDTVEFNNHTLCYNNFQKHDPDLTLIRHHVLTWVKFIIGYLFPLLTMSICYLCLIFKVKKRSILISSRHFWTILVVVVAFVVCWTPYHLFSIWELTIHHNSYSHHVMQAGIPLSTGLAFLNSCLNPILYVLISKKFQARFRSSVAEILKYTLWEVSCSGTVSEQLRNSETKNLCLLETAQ
Protocol: CHO-K1 and MEF cells stably expressing receptors of interest were starved for 12–18 h in serum-free medium prior to stimulation. […] Whole cell lysates were resolved on 10% Tris/Tricine polyacrylamide gels and transferred to nitrocellulose membranes. Phosphorylated ERK1/2 and total ERK1/2 were detected by using rabbit polyclonal anti-phospho-ERK1/2 (Cell Signaling #4370, 1:1,000) and anti-ERK1/2 (Cell Signaling #4695S, 1:2,000) antibodies. Chemiluminescent detection was performed using ECL-Plus reagent (Perkin Elmer).
We next investigated the contribution of Gαi/o proteins and arrestins to ERK1/2 phosphorylation by using mouse embryonic fibroblast cells (MEF) deficient for the expression of arrestins (β-Arr1^-/- and β-Arr2^-/-) and stably expressing CMKLR1 or GPR1. […] However, we cannot rule out that the weak activation of G proteins by GPR1 contributes to ERK1/2 phosphorylation. We also must take into consideration that these assays display different levels of amplification and were performed in different cell types.
Fig 10 Contribution of Gi/o proteins and arrestins to CMKLR1- and GPR1-mediated ERK1/2 phosphorylation. […] Results are expressed as the ratio between the amounts of phospho-ERK1/2 and total ERK1/2 following quantification. […] Statistical significance was assessed using Tukey's test (***P < 0.0001; ** and ^## P< 0.001; * and ^# P< 0.01).

[2] = molecular target: T1, GPR1; assay: β-arrestin BRET recruitment assay, GPR1; design: expressed in transfected cells; host or cells: HEK293T; settings: GPR1, HEK293T; PTX pretreatment, 100 nM chemerin
Protocol: (§1) β-arrestin recruitment was measured by a BRET proximity assay as previously described. Briefly, plasmids encoding Rluc-β-arrestin 2 and receptors fused to Venus were cotransfected into HEK293T cells by using the calcium phosphate method. […] BRET^1 between RLuc and YFP was measured after the addition of coelenterazine h (5 μM, Promega).
(§2) Data represent the mean ± S.E.M. of three independent experiments.
as §2

[3] = molecular target: T2, CMKLR1 (Homo sapiens, UniProt Q99788); assay: ERK1/2 phosphorylation in MEF cells, CMKLR1; design: expressed in transfected cells; settings: PTX pre-treatment, 300 nM chemerin
T2 sequence (Q99788 1-373): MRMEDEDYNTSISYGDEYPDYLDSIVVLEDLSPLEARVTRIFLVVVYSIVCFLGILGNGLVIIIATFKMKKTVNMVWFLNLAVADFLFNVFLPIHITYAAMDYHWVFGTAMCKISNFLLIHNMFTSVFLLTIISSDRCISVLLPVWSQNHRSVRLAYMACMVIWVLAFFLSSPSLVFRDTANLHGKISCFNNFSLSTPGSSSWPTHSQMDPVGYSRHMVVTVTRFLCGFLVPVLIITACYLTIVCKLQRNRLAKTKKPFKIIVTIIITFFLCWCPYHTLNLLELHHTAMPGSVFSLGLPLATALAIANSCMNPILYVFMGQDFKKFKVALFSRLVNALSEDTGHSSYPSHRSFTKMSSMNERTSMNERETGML
Protocol: Whole cell lysates were resolved on 10% Tris/Tricine polyacrylamide gels and transferred to nitrocellulose membranes. […] Chemiluminescent detection was performed using ECL-Plus reagent (Perkin Elmer).
Results are expressed as the ratio between the amounts of phospho-ERK1/2 and total ERK1/2 following quantification. […] MEF cells were derived form β-Arr1 KO and WT1 or β-Arr2 KO and WT2 siblings.

[4] = molecular target: T2, CMKLR1; assay: β-arrestin BRET recruitment assay, CMKLR1; design: expressed in transfected cells; host or cells: HEK293T; settings: CMKLR1, HEK293T; PTX pretreatment, 100 nM chemerin
Protocol: as §1, §2, §2

Pertussis toxin
effect of PTX on ERK1/2 phosphorylation [1]: partially inhibited
effect of PTX on β-arrestin1 recruitment [2]: inhibits partially β-arrestin1 recruitment to CMKLR1 and GPR1
effect of PTX on β-arrestin2 recruitment [2]: did not inhibit β-arrestin2 recruitment to CMKLR1 and GPR1
effect of PTX on ERK1/2 phosphorylation [3]: partially inhibited
effect of PTX on β-arrestin1 recruitment [4]: inhibits partially β-arrestin1 recruitment to CMKLR1 and GPR1
effect of PTX on β-arrestin2 recruitment [4]: did not inhibit β-arrestin2 recruitment to CMKLR1 and GPR1
